Measurements taken from US12090141B2, “Use of clemizole compounds for treatment of inflammatory conditions” (priority 2015, dated 2024).

What was measured:
[1] = tested on: NASH mice; assay: Liver fibrosis area, Sirius red staining in NASH mice; type: in vivo, C57BL/6 mice; conditions: for Sirius red-positive area (mean ± SD): liver fibrosis area, n = 6
Description: (§1) For HE staining, sections were cut from paraffin blocks of liver tissue prefixed in Bouin's solution and stained with Lillie-Mayer's Hematoxylin (Muto Pure Chemicals Co., Ltd., Japan) and eosin solution (Wako Pure Chemical Industries). NAFLD Activity score (NAS) was calculated according to the criteria of Kleiner (Kleiner D E. et al., Hepatology, 2005; 41:1313). To visualize collagen deposition, Bouin's fixed liver sections were stained using picro-Sirius red solution (Waldeck, Germany).
For quantitative analysis of fibrosis areas bright field images of Sirius red-stained sections were captured around the central vein for livers using a digital camera (DFC280; Leica, Germany) at 200-fold magnification, and the positive areas in 5 fields/section were measured using ImageJ software (National Institute of Health, USA).

[2] = tested on: NASH mice; assay: NAFLD activity score, HE staining of liver sections of NASH mice; type: in vivo, C57BL/6 mice; conditions: for NAS (mean ± SD): n = 6, NAFLD activity score by Kleiner criteria; for Steatosis score 0, number of mice: n = 6, score 0 = <5%; for Steatosis score 1, number of mice: n = 6, score 1 = 5-33%; for Hepatocyte ballooning score 1, number of mice: n = 6, score 1 = Few Balloon cells; for Lobular inflammation score 2, number of mice: n = 6, score 2 = 2-4 foci/200x; for Hepatocyte ballooning score 2, number of mice: n = 6, score 2 = Many cells/prominent ballooning; for Lobular inflammation score 3, number of mice: n = 6, score 3 = >4 foci/200x; for Lobular inflammation score 1, number of mice: n = 6, score 1 = <2 foci/200x
Description: (§2) NASH was induced in 55 male mice by a single subcutaneous injection of 200 μg streptozotocin (STZ, Sigma-Aldrich, USA) solution 2 days after birth and feeding with high fat diet (HFD, 57 kcal % fat, cat #: HFD32, CLEA Japan, Inc., Japan) after 4 weeks of age. Mice that had been induced have NASH by this method are referred to below as NASH mice.
(§3) Compound D was orally administered at doses of 89 mg/kg twice daily.
as §1
Definition of NAS Components

[3] = tested on: NASH mice; assay: Whole blood glucose and plasma ALT in NASH mice; type: in vivo, C57BL/6 mice; conditions: for Whole blood glucose levels vs Vehicle group: during the study period, non-fasting; for Plasma ALT (mean ± SD): time of sacrifice, n = 6
Description: Non-fasting blood was collected in polypropylene tubes with anticoagulant (Novo-heparin, Mochida Pharmaceutical, Japan) from submandibular bleeding at 6 (before dosing), 7 and 8 weeks of age. The collected blood samples were centrifuged and the supernatant were collected as heparinized plasma.
Non-fasting blood glucose in whole blood was measured using LIFE CHECK (EIDIA Co. Ltd., Japan). Plasma ALT was measured by FUJI DRI-CHEM 7000 (Fujifilm Corporation, Japan).

[4] = tested on: mice with HCC; assay: Macroscopic analysis of liver tumor nodules in mice with HCC; type: in vivo, C57BL/6 mice; conditions: for Maximum diameter of nodules (mean ± SD) / Number of nodules (mean ± SD): macroscopically visible tumor nodules on liver surface, n = 1-3
Description: The number of macroscopically visible tumor nodules formed on the liver surface was measured. The maximum diameter of macroscopically visible tumor nodules formed on the liver surface was measured.

[5] = tested on: NASH mice; assay: Body weight and liver weight in NASH mice (sacrifice 9 wk); conditions: for Mean body weight on the day of sacrifice vs Vehicle group / Mean liver weight on the day of sacrifice vs Vehicle group / Mean liver-to-body weight ratio on the day of sacrifice vs Vehicle group: 9 wk; for Body weight (mean ± SD): day of sacrifice 9 wk, n = 6, oral from 6 wks, A-C 258 then 129 mg/kg once daily, D 89 mg/kg twice daily; for Liver weight (mean ± SD) / Liver-to-body weight ratio (mean ± SD): sacrifice 9 wk, n = 6
Description: as §2, §3
C57BL/6 mice (14-day-pregnant female) were obtained from Japan SLC, Inc. (Shizuoka, Japan). All animals used in the study were housed and cared for in accordance with the Japanese Pharmacological Society Guidelines for Animal Use.

[6] = tested on: NASH induced HCC mice; assay: Body weight and liver weight in NASH induced HCC mice (sacrifice 18 wk); type: in vivo; conditions: for Body weight (mean ± SD) / Liver weight (mean ± SD) / Liver-to-body weight ratio (mean ± SD): NASH induced HCC mice, 18 wk, n = 1-3
From the text: Table 1 below summarizes the treatment schedule.

[7] = tested on: HCC; conditions: phase 2 study, cited from earlier work
[8] = tested on: HCC; conditions: phase 3 study, cited from earlier work
[9] = molecular target: CYP3A4 (Homo sapiens, UniProt P08684); assay: Clemizole metabolism by CYP450 enzymes in vitro; type: in vitro ADME
Sequence of CYP3A4 (P08684 whole entry): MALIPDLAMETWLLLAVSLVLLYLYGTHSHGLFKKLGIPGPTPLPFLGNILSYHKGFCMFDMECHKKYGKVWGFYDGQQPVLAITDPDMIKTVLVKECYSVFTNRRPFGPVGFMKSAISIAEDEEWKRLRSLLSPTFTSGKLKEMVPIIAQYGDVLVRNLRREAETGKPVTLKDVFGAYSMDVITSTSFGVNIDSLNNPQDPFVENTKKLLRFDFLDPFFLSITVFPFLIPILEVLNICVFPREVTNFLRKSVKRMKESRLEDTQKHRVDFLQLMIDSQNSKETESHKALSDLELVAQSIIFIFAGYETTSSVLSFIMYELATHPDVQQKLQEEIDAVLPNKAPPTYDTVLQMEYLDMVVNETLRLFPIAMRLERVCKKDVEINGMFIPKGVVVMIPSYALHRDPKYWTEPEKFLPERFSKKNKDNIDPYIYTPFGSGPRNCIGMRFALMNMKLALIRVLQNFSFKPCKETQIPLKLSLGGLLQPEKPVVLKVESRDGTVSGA

[10] = tested on: hepatocellular carcinoma (HCC); assay: Phase IIa open label pilot study of clemizole in subjects with hepatocellular carcinoma; type: in vivo, human
Description: The completed study treats up to 40 patients. Initial clinical results from two patients with hepatocellular carcinoma who were administered 200 mg clemizole for 3 or 5 months are described below.

[11] = treatment period, 4 mice per group

| SMILES | Fibrosis area at the time of sacrifice vs Vehicle group [1] | Sirius red-positive area (mean ± SD) [1] | NAS (mean ± SD) [2] | Steatosis score 0, number of mice [2] | Steatosis score 1, number of mice [2] | Lobular inflammation score 2, number of mice [2] | Hepatocyte ballooning score 2, number of mice [2] | Lobular inflammation score 3, number of mice [2] | Whole blood glucose levels vs Vehicle group [3] | Plasma ALT (mean ± SD) [3] | Maximum diameter of nodules (mean ± SD) ([4]; 18 wk) | Number of nodules (mean ± SD) ([4]; 18 wk) | Mean body weight on the day of sacrifice vs Vehicle group [5] | Mean liver weight on the day of sacrifice vs Vehicle group [5] | Mean liver-to-body weight ratio on the day of sacrifice vs Vehicle group [5] | Body weight (mean ± SD) [5] | Liver weight (mean ± SD) [5] | Liver-to-body weight ratio (mean ± SD) [5] | Liver weight (mean ± SD) [6] | Liver-to-body weight ratio (mean ± SD) [6] | also measured |
| --- | --- | --- | --- | --- | --- | --- | --- | --- | --- | --- | --- | --- | --- | --- | --- | --- | --- | --- | --- | --- | --- |
| CCN(CC)CCCC(C)Nc1ccnc2cc(Cl)ccc12 (stereo not drawn) [Compound A, Recemic mixture of R-chloroquine and S-chloroquine] | no significant differences | 0.87 ± 0.23% | 5.2 ± 0.8 | 1 | 5 | 1 | 3 | 5 | no significant differences | 21 ± 13 U/L | 6.1 ± 0.0 mm | 2.0 ± 0.0 | no significant differences | no significant differences | no significant differences | 15.0 ± 1.9 g | 1045 ± 243 mg | 7.0 ± 1.4% | 1443 ± 0 mg | 8.2 ± 0.0% | Hepatocyte ballooning score 1, number of mice [2]: 3; Body weight (mean ± SD) [6]: 17.5 ± 0.0 g; Mice died before reaching week 18 [6, 11]: Three out of 4 |
| CCN(CC)CCC[C@H](C)Nc1ccnc2cc(Cl)ccc12 [Compound C, S-chloroquine] | no significant differences | 0.90 ± 0.44% | 5.3 ± 0.5 |  | 6 | 4 | 6 | 2 | no significant differences | 9 ± 3 U/L | 3.5 ± 5.0 mm | 1.5 ± 2.1 | significantly decreased | significantly decreased | no significant differences | 13.7 ± 1.3 g | 810 ± 77 mg | 5.9 ± 0.4% | 1353 ± 178 mg | 7.6 ± 0.1% | Body weight (mean ± SD) [6]: 17.9 ± 2.8 g; Mice died before reaching week 18 [6, 11]: Two out of 4 |
| CCN(CC)CCC[C@@H](C)Nc1ccnc2cc(Cl)ccc12 [Compound B, R-chloroquine] | no significant differences | 0.78 ± 0.35% | 4.3 ± 0.5 | 1 | 5 | 4 | 5 |  | no significant differences | 14 ± 6 U/L | 11.1 ± 7.0 mm | 2.0 ± 1.4 | no significant differences | no significant differences | no significant differences | 14.5 ± 2.4 g | 934 ± 135 mg | 6.5 ± 0.4% | 1616 ± 635 mg | 7.9 ± 3.0% | NAS compared with the Vehicle group [2]: significant reduction; Lobular inflammation score 1, number of mice [2]: 2; Hepatocyte ballooning score 1, number of mice [2]: 1; Body weight (mean ± SD) [6]: 20.4 ± 0.3 g; Mice died before reaching week 18 [6, 11]: Two out of 4 |
| CNC(=O)c1cc(Oc2ccc(NC(=O)Nc3ccc(Cl)c(C(F)(F)F)c3)cc2)ccn1 [sorafenib] |  |  |  |  |  |  |  |  |  |  |  |  |  |  |  |  |  |  |  |  | Toxicity: diarrhea ([7]; all grades): over 40%; Toxicity: fatigue ([7]; all grades): 30%; Toxicity: hand-foot skin reaction ([7]; all grades): over 30%; Grade 3/4 drug-related toxicity: diarrhea [7]: 8.0%; Grade 3/4 drug-related toxicity: fatigue [7]: 9.5%; Grade 3/4 drug-related toxicity: hand-foot skin reaction [7]: 5.1%; Median time to progression (TTP) [7]: 4.2 months; Hypophosphatemia ([8]; grade 3): 11%; Thrombocytopenia ([8]; grade 3 or 4): 4%; Median time to radiologic progression [8]: 5.5 months; Overall incidence of treatment-related adverse events [8]: 80% |
| Clc1ccc(Cn2c(CN3CCCC3)nc3ccccc32)cc1 [Compound D, clemizole] | no significant differences | 0.95 ± 0.39% | 4.3 ± 1.0 | 1 | 5 | 1 | 6 | 1 | no significant differences | 18 ± 10 U/L | 0.7 ± 1.2 mm | 0.3 ± 0.6 | no significant differences | no significant differences | no significant differences |  | 1047 ± 76 mg | 6.8 ± 0.4% | 1710 ± 113 mg | 6.3 ± 0.8% | Role of CYP3A4 in clemizole biotransformation in human liver [9]: mediates the majority of this drug biotransformation reaction; NAS compared with the Vehicle group [2]: significant reduction; Lobular inflammation score 1, number of mice [2]: 4; Survived mice with absence of visible tumor nodules on the liver surface ([4]; 18 wk): 2 out of 3; Tumor formation in mouse livers (FIG. 8, representative images) ([4]; mouse, in vivo): inhibition of tumor formation; Mice died before reaching week 18 ([6]; male, C57BL/6, mouse, in vivo): one out of 4; HCC status on follow up dynamic liver CT imaging ([10]; Patient #1, 200 mg clemizole orally thrice daily, after 3 months): the HCC remained stable; Tolerability (complaints or side effects) ([10]; Patient #1, 200 mg thrice daily, after 3 months): no complaints or side effects; HCC status on follow up dynamic liver magnetic resonance imaging ([10]; Patient #2, 200 mg clemizole orally thrice daily, after 5 months): the HCC remained stable; Tolerability (complaints or side effects) ([10]; Patient #2, 200 mg thrice daily, after 5 months): no complaints or side effects |
